Experimental data as given in ChEMBL document CHEMBL4346657, “Anticancer activity, dual prooxidant/antioxidant effect and apoptosis induction profile of new bichalcophene-5-carboxamidines” (Eur J Med Chem, 2019).

Legend:
OVCAR-8 = assay: Antiproliferative activity against human OVCAR8 cells assessed as growth inhibition after 48 hrs by sulforhodamine B assay; type: functional; conditions: OVCAR-8, 48 h
SF-268 = assay: Antiproliferative activity against human SF268 cells assessed as growth inhibition after 48 hrs by sulforhodamine B assay; type: functional; conditions: SF-268, 48 h
A498 = assay: Antiproliferative activity against human A498 cells assessed as growth inhibition after 48 hrs by sulforhodamine B assay; type: functional; conditions: A498, 48 h
NCI-H522 = assay: Antiproliferative activity against human NCI-H522 cells assessed as growth inhibition after 48 hrs by sulforhodamine B assay; type: functional; conditions: NCI-H522, 48 h
[1] = Antioxidant activity assessed as DPPH radical scavenging activity incubated in dark for 30 mins by spectrophotometric method relative to ascorbic acid; type: functional
SK-OV-3 = assay: Antiproliferative activity against human SKOV3 cells assessed as growth inhibition after 48 hrs by sulforhodamine B assay; type: functional; conditions: SK-OV-3, 48 h
WI-38 = assay: Cytotoxicity activity against human WI38 cells assessed as reduction in cell viability measured after 48 hrs by MTT assay; type: cell-based; conditions: WI-38, 48 h
[2] = Antioxidant activity assessed as ABTS radical scavenging activity by spectrophotometric method relative to ascorbic acid; type: functional
[3] = Haemolytic activity in human erythrocytes assessed as induction of hemolysis at 5 mM after 30 mins relative to H202; type: cell-based, Erythrocyte; conditions: read-out: Activity
BT-549 = assay: Antiproliferative activity against human BT549 cells assessed as growth inhibition after 48 hrs by sulforhodamine B assay; type: functional; conditions: BT-549, 48 h
HT-29 = assay: Antiproliferative activity against human HT-29 cells assessed as growth inhibition after 48 hrs by sulforhodamine B assay; type: functional; conditions: HT-29, 48 h
Erythrocyte = assay: Haemolytic activity in human erythrocytes assessed as induction of hemolysis at 0.625 mM after 30 mins relative to H202; type: cell-based; conditions: erythrocyte, 0.5 h, 625 µM
IGROV-1 = assay: Antiproliferative activity against human IGROV1 cells assessed as growth inhibition after 48 hrs by sulforhodamine B assay; type: functional; conditions: IGROV-1, 48 h
HCT-116 [4] = assay: Antiproliferative activity against human HCT116 cells assessed as growth inhibition after 48 hrs by sulforhodamine B assay; type: functional; conditions: HCT-116, 48 h
[5] = system: Panel NCI-60 (60 carcinoma cell lines); assay: Antiproliferative activity against human NCI60 cells assessed as growth inhibition at 10 uM after 48 hrs by sulforhodamine B assay; type: functional; conditions: read-out: GI
NCI-H226 = assay: Antiproliferative activity against human NCI-H226 cells assessed as growth inhibition after 48 hrs by sulforhodamine B assay; type: functional; conditions: NCI-H226, 48 h
NCI/ADR-RES = assay: Antiproliferative activity against human NCI-ADR-RES cells assessed as growth inhibition after 48 hrs by sulforhodamine B assay; type: functional
[6] = Antioxidant activity assessed as DPPH radical scavenging activity incubated in dark for 30 mins by spectrophotometric method relative to control; type: functional; parameters: concentration or dose not given beside the values
RXF 393 = assay: Antiproliferative activity against human RXF393 cells assessed as growth inhibition after 48 hrs by sulforhodamine B assay; type: functional; conditions: RXF 393, 48 h
[7] = system: Panel NCI-60 (60 carcinoma cell lines); assay: Antiproliferative activity against human NCI60 cells assessed as growth inhibition after 48 hrs by sulforhodamine B assay; type: functional
Malme-3M = assay: Antiproliferative activity against human MALME-3M cells assessed as growth inhibition after 48 hrs by sulforhodamine B assay; type: functional
OVCAR-4 = assay: Antiproliferative activity against human OVCAR4 cells assessed as growth inhibition after 48 hrs by sulforhodamine B assay; type: functional; conditions: OVCAR-4, 48 h
SF-295 = assay: Antiproliferative activity against human SF295 cells assessed as growth inhibition after 48 hrs by sulforhodamine B assay; type: functional; conditions: SF-295, 48 h
786-0 = assay: Antiproliferative activity against human 786-0 cells assessed as growth inhibition after 48 hrs by sulforhodamine B assay; type: functional; conditions: 786-0, 48 h
UACC-257 = assay: Antiproliferative activity against human UACC257 cells assessed as growth inhibition after 48 hrs by sulforhodamine B assay; type: functional; conditions: UACC-257, 48 h
NCI-H23 = assay: Antiproliferative activity against human NCI-H23 cells assessed as growth inhibition after 48 hrs by sulforhodamine B assay; type: functional; conditions: NCI-H23, 48 h
NCI-H460 = assay: Antiproliferative activity against human NCI-H460 cells assessed as growth inhibition after 48 hrs by sulforhodamine B assay; type: functional; conditions: NCI-H460, 48 h
[8] = Haemolytic activity in human erythrocytes assessed as induction of hemolysis at 10 mM after 30 mins relative to H202; type: cell-based, Erythrocyte; conditions: read-out: Activity
HCT-116 [9] = assay: Induction of apoptosis in human HCT116 cells assessed as increase in caspase 3 mRNA expression at 100 nM after 6 hrs hrs by SYBR green dye-based qRT-PCR analysis relative to control; type: functional
SNB-75 = assay: Antiproliferative activity against human SNB75 cells assessed as growth inhibition after 48 hrs by sulforhodamine B assay; type: functional; conditions: SNB-75, 48 h
U-251 = assay: Antiproliferative activity against human U251 cells assessed as growth inhibition after 48 hrs by sulforhodamine B assay; type: functional; conditions: U-251, 48 h
MDA-MB-231 = assay: Antiproliferative activity against human MDA-MB-231/ATCC cells assessed as growth inhibition after 48 hrs by sulforhodamine B assay; type: functional; conditions: MDA-MB-231, 48 h
SW-620 = assay: Antiproliferative activity against human SW620 cells assessed as growth inhibition after 48 hrs by sulforhodamine B assay; type: functional; conditions: SW-620, 48 h
ACHN = assay: Antiproliferative activity against human ACHN cells assessed as growth inhibition after 48 hrs by sulforhodamine B assay; type: functional
HCT-116 [10] = assay: […] in CDK1 mRNA expression in human HCT116 cells at 100 nM after 6 hrs hrs by SYBR green dye-based qRT-PCR analysis relative to control; type: functional
OVCAR-3 = assay: Antiproliferative activity against human OVCAR3 cells assessed as growth inhibition after 48 hrs by sulforhodamine B assay; type: functional; conditions: OVCAR-3, 48 h
MOLT-4 = assay: Antiproliferative activity against human MOLT4 cells assessed as growth inhibition after 48 hrs by sulforhodamine B assay; type: functional; conditions: MOLT-4, 48 h
HCC 2998 = assay: Antiproliferative activity against human HCC2998 cells assessed as growth inhibition after 48 hrs by sulforhodamine B assay; type: functional; conditions: HCC 2998, 48 h
Hs-578T = assay: Antiproliferative activity against human Hs578T cells assessed as growth inhibition after 48 hrs by sulforhodamine B assay; type: functional
TK-10 = assay: Antiproliferative activity against human TK10 cells assessed as growth inhibition after 48 hrs by sulforhodamine B assay; type: functional; conditions: TK-10, 48 h
HOP-62 = assay: Antiproliferative activity against human HOP62 cells assessed as growth inhibition after 48 hrs by sulforhodamine B assay; type: functional; conditions: HOP-62, 48 h
RPMI-8226 = assay: Antiproliferative activity against human RPMI8226 cells assessed as growth inhibition after 48 hrs by sulforhodamine B assay; type: functional; conditions: RPMI-8226, 48 h

SMILES: COc1ccc2cc(-c3ccc(-c4ccc(C(=N)N)s4)s3)ccc2c1
- GI50 (OVCAR-8): 2340 nM
- GI50 (SF-268): 2100 nM
- GI50 (A498): 14.3 µM
- GI50 (NCI-H522): 1920 nM
- fold change (FC) [1]: 0.5
- GI50 (SK-OV-3): 17.9 µM
- IC50 (WI-38): 80.5 µM
- fold change (FC) [2]: 0.6
- hemolysis at 0.5 h, 5000 µM [3]: 11.3%
- GI50 (BT-549): 17.6 µM
- GI50 (HT-29): 1720 nM
- Activity (Erythrocyte): Non-Toxic
- GI50 (IGROV-1): 2270 nM
- GI50 (HCT-116 [4]): 2080 nM
- inhibition of growth at 10 µM [5]: 95.3%
- GI50 (NCI-H226): 23.6 µM
- GI50 (NCI/ADR-RES): 2290 nM
- inhibition [6]: 43%
- GI50 (RXF 393): 7.22 µM
- GI50 [7]: 3090 nM
- LC50 [7]: 38 µM
- TGI [7]: 7.94 µM
- GI50 (Malme-3M): 3320 nM
- GI50 (OVCAR-4): 1820 nM
- GI50 (SF-295): 5.07 µM
- GI50 (786-0): 2040 nM
- GI50 (UACC-257): 19.6 µM
- GI50 (NCI-H23): 3220 nM
- GI50 (NCI-H460): 1940 nM
- hemolysis at 0.5 h, 10000 µM [8]: 18.7%
- fold change (FC) (HCT-116 [9]): 2.44
- GI50 (SNB-75): 10.4 µM
- GI50 (U-251): 1830 nM
- GI50 (MDA-MB-231): 2460 nM
- GI50 (SW-620): 1910 nM
- GI50 (ACHN): 3060 nM
- fold change (FC) (HCT-116 [10]): 0.93
- GI50 (OVCAR-3): 2420 nM
- GI50 (MOLT-4): 2170 nM
- GI50 (HCC 2998): 3350 nM
- GI50 (Hs-578T): 16.6 µM
- GI50 (TK-10): 14.2 µM
- GI50 (HOP-62): 1780 nM
- GI50 (RPMI-8226): 2160 nM

SMILES: N=C(N)c1ccc(-c2ccc(-c3ccc(Cl)cc3)s2)s1
- GI50 (OVCAR-8): 2480 nM
- GI50 (SF-268): 1770 nM
- GI50 (A498): 13 µM
- GI50 (NCI-H522): 1830 nM
- fold change (FC) [1]: 0.8
- GI50 (SK-OV-3): 1.7 µM
- IC50 (WI-38): 69.2 µM
- fold change (FC) [2]: 0.9
- hemolysis at 0.5 h, 5000 µM [3]: 49%
- GI50 (BT-549): 2.11 µM
- GI50 (HT-29): 1430 nM
- Activity (Erythrocyte): Non-Toxic
- GI50 (IGROV-1): 1830 nM
- GI50 (HCT-116 [4]): 1740 nM
- inhibition of growth at 10 µM [5]: -57.2%
- GI50 (NCI-H226): 2.19 µM
- GI50 (NCI/ADR-RES): 1850 nM
- inhibition [6]: 72.9%
- GI50 (RXF 393): 1.71 µM
- GI50 [7]: 1730 nM
- LC50 [7]: 29.5 µM
- TGI [7]: 4.07 µM
- GI50 (Malme-3M): 1810 nM
- GI50 (OVCAR-4): 1670 nM
- GI50 (SF-295): 1.63 µM
- GI50 (786-0): 1790 nM
- GI50 (UACC-257): 2.78 µM
- GI50 (NCI-H23): 1620 nM
- GI50 (NCI-H460): 1510 nM
- hemolysis at 0.5 h, 10000 µM [8]: 81.7%
- fold change (FC) (HCT-116 [9]): 3
- GI50 (SNB-75): 1.49 µM
- GI50 (U-251): 1830 nM
- GI50 (MDA-MB-231): 1800 nM
- GI50 (SW-620): 1740 nM
- GI50 (ACHN): 1750 nM
- fold change (FC) (HCT-116 [10]): 1.08
- GI50 (OVCAR-3): 1740 nM
- GI50 (MOLT-4): 1780 nM
- GI50 (HCC 2998): 1570 nM
- GI50 (Hs-578T): 2.14 µM
- GI50 (TK-10): 1.96 µM
- GI50 (HOP-62): 1750 nM
- GI50 (RPMI-8226): 2040 nM
